The NIST ThermoML archive (doi:10.1016/j.tca.2006.02.029)

Assay: excess molar enthalpy (molar enthalpy of mixing); xn = mol fraction of the nth substance listed
Details: 1065 K, 101 kPa, Liquid, Drop calorimetry

[Fe] [iron] + [Sb]
Details | excess molar enthalpy [kcal/mol]
x1 = 0.0023 | 0.0117
x1 = 0.0025 | 0.00933
x1 = 0.0049 | 0.0176
x1 = 0.0055 | 0.0233
x1 = 0.0075 | 0.0279
x1 = 0.008 | 0.0317
x1 = 0.0102 | 0.0359
x1 = 0.0114 | 0.0427
x1 = 0.0129 | 0.0455
x1 = 0.0135 | 0.0475
x1 = 0.0144 | 0.0535
x1 = 0.0148 | 0.0479
x1 = 0.0157 | 0.0538
x1 = 0.0187 | 0.0674
x1 = 0.0188 | 0.0624
x1 = 0.0232 | 0.079
x1 = 0.0271 | 0.0916
x1 = 0.029 | 0.0888
x1 = 0.0292 | 0.0913
x1 = 0.0316 | 0.105
x1 = 0.0359 | 0.118
x1 = 0.0407 | 0.131
x1 = 0.0442 | 0.131
x1 = 0.0445 | 0.128
x1 = 0.0455 | 0.145
x1 = 0.0591 | 0.165
x1 = 0.0609 | 0.168
x1 = 0.0762 | 0.201
x1 = 0.0765 | 0.204
x1 = 0.0942 | 0.229
x1 = 0.096 | 0.243
x1 = 0.1139 | 0.259
x1 = 0.1167 | 0.283
x1 = 0.1336 | 0.313
x1 = 0.1353 | 0.299
